# Measured values taken from patent US4918099A, “Drug, preparation and use thereof” (priority 1985, dated 1990).
# Experiments:
# [1] = Body weight and blood sugar of the rats of the MDA test; assay type: in vivo; conditions: on 30th day
# Experimental: (§1) Rats were divided into four test groups, viz.
# (§2) Group B: Normal rats (8 laboratory animals) to which an aqueous brazilin solution (comprising 110 mg of brazilin per kg body weight) was daily administered from the 20th to the 30th day
# (§3) Group D: Diabetic rats (10 laboratory animals); for inducing diabetes, a dose of 70 mg of streptozotocin per kg body weight in 0.1M citrate buffer solution (pH 4.0) was administered intraperitoneally to normal rats on the 1st test day. From the 20th to the 30th day of the test aqueous brazilin solution (comprising 110 mg of brazilin per kg body weight) was daily administered orally to these diabetic rats. (Instead of an aqueous brazilin solution, the same amount of distilled water was administered to the laboratory animals of the groups A and C from the 20th to the 30th day.)
# [2] = system: prostacyclin production; assay: Prostacyclin production (6-keto PGF alpha); assay type: in vivo, rats
# Experimental: If an inhibiting action on MDA is detectable but no significant influence on the prostacyclin production can be detected, a selective inhibiting action on thromboxane A2 may be inferred.
# as §1, §2, §3
# After expiration of the 30th test day, the test animals were sacrificed, and the MDA production was determined by means of thrombin stimulated platelets.
compound,measurement,setting,value
Oc1ccc2c(c1)OC[C@]1(O)Cc3cc(O)c(O)cc3[C@H]21 [brazilin],Blood sugar,"[1]; Group B (normal + brazilin), normal control 79",77 ± 20.3 mg/100 ml
same,Body weight,"[1]; Group B (normal + brazilin), normal control 222",226 ± 24.4 g
same,Blood sugar,"[1]; Group D (diabetic + brazilin), 266 on 20th day, diabetic control 337",165 ± 42.7 mg/100 ml
same,Body weight,"[1]; Group D (diabetic + brazilin), diabetic control 185",206 ± 9.61 g
same,6-Keto PG F α,"[2]; diabetic rats + brazilin, diabetic control 0.19",0.18 ± 0.03 ng/mg
same,6-Keto PG F α,"[2]; normal rats + brazilin, normal control 0.18",0.17 ± 0.02 ng/mg
same,influence on the prostacyclin production,[2]; rats,no influence on the prostacyclin production could be observed
